Results as given in ChEMBL document CHEMBL1159030, “Plant anticancer agents, L. cytotoxic triterpenes from Sandoricum koetjape stems” (1992).
≈ marks a conversion by molar mass, not a printed value. Calls of active or inactive are those of the source. No cut-off for these calls is given here.

Tests used:
A-431 = test: Cytotoxicity against human A431 cells; format: functional; details: read-out: ED50 (the source's name)
[1] = Cytotoxicity against human BC1 cells; format: functional; details: read-out: ED50 (the source's name)
Col2 = test: Cytotoxicity against human Col2 cells; format: functional; details: read-out: ED50 (the source's name)
HT-1080 = test: Cytotoxicity against human HT1080 cells; format: functional; details: read-out: ED50 (the source's name)
KB = test: Cytotoxicity against human KB cells; format: functional; details: read-out: ED50 (the source's name)
[2] = Cytotoxicity against human vinblastine-resistant KBV1 cells; format: functional; details: KB-V1, read-out: ED50 (the source's name)
LNCaP = test: Cytotoxicity against human LNCAP cells; format: functional; details: read-out: ED50 (the source's name)
Lu1 = test: Cytotoxicity against human Lu1 cells; format: functional; details: read-out: ED50 (the source's name)
SK-MEL-2 = test: Cytotoxicity against human SK-MEL-2 cells; format: functional; details: read-out: ED50 (the source's name)
ZR-75-1 = test: Cytotoxicity against human ZR-75-1 cells; format: functional; details: read-out: ED50 (the source's name)
P388 = test: Cytotoxicity against mouse P388 cells; format: functional; details: read-out: ED50 (the source's name)
ASK = test: Antimitotic activity in rat ASK cells at 0.32 to 20 ug/mL; format: functional, cell-based

SMILES | EC50 (A-431) [µg/mL] | EC50 [1] [µg/mL] | EC50 (Col2) [µg/mL] | EC50 (HT-1080) [µg/mL] | EC50 (KB) [µg/mL] | EC50 [2] [µg/mL] | EC50 (LNCaP) [µg/mL] | EC50 (Lu1) [µg/mL] | EC50 (SK-MEL-2) [µg/mL] | EC50 (ZR-75-1) [µg/mL] | EC50 (P388) [µg/mL] | Activity (ASK)
C=C1CC[C@@H]2O[C@]2(C)CC[C@@H]2[C@@H]1CC2(C)C | > 20 | > 20 | > 20 | > 20 | > 20 | > 20 | > 20 | > 20 | > 20 | > 20 | > 20 | inactive
CC1(C)C(=O)CC[C@]2(C)[C@H]3CC=C4[C@@H]5C[C@](C)(C(=O)O)CC[C@]5(C)CC[C@@]4(C)[C@]3(C)CC[C@@H]12 | > 20 | > 20 | > 20 | > 20 | 4.9 (≈ 10.8 µM) | 8.5 (≈ 18.7 µM) | 10 (≈ 22 µM) | 10 (≈ 22 µM) | 12 (≈ 26.4 µM) | 5.2 (≈ 11.4 µM) | 0.61 (≈ 1.34 µM) | 
C=C1CC[C@@H]2[C@H]([C@H]3[C@@H](C)CC[C@@H]13)C2(C)C | > 20 | > 20 | > 20 | > 20 | > 20 | > 20 | > 20 | > 20 | > 20 | > 20 | > 20 | inactive
CC1(C)[C@H](O)CC[C@]2(C)[C@H]3CC=C4[C@@H]5C[C@](C)(C(=O)O)CC[C@]5(C)CC[C@@]4(C)[C@]3(C)CC[C@@H]12 [KATONIC ACID] | 12 (≈ 26.3 µM) | 7.8 (≈ 17.1 µM) | > 20 | 19 (≈ 41.6 µM) | 8.3 (≈ 18.2 µM) | 15 (≈ 32.8 µM) | 10 (≈ 21.9 µM) | 11 (≈ 24.1 µM) | 12 (≈ 26.3 µM) | 2.2 (≈ 4.82 µM) | 0.11 (≈ 0.241 µM) | 
C=C(C)[C@@H]1CC[C@]2(C)[C@H](CC=C3[C@@H]4C[C@@](C)(C(=O)O)CC[C@]4(C)CC[C@]32C)[C@@]1(C)CCC(=O)O [KOETJAPIC ACID] | > 20 | > 20 | > 20 | > 20 | > 20 | > 20 | > 20 | > 20 | > 20 | > 20 | > 20 | inactive
C=C1CC[C@@H]2[C@H]([C@H]3[C@H]1CC[C@]3(C)O)C2(C)C [SPATHULENOL] | > 20 | > 20 | > 20 | > 20 | > 20 | > 20 | > 20 | > 20 | > 20 | > 20 | > 20 | inactive
